Data from EP0846114B1, “3-PYRIDYLOXYALKYL HETEROCYCLIC ETHER COMPOUNDS USEFUL IN CONTROLLING CHEMICAL SYNAPTIC TRANSMISSION” (priority 1995, dated 1996).
Counter-ions that a name gives are not always drawn. Like-named read-outs stand apart in the source and are kept apart here.

How the values were obtained:
[1] = target: T1, neuronal nicotinic cholinergic channel receptors (Rattus norvegicus, UniProt P09483+P12390); assay: [3H]-cytisine radioligand displacement binding (Protocol A)
T1 construct: crude synaptic membrane preparations from whole rat brain; from tissue; host or cells: whole rat brain, crude synaptic membranes
Protocol: Binding of [^3H]-cytisine ([^3H]-CYT) to nicotinic receptors was accomplished using crude synaptic membrane preparations from whole rat brain (Pabreza et al., Molecular Pharmacol., 1990, 39:9). Washed membranes were stored at -80°C prior to use. Frozen aliquots were slowly thawed and resuspended in 20 volumes of buffer (containing: 120 mM NaCl, 5 mM KCl, 2 mM MgCl2, 2 mM CaCl2 and 50 mM Tris-Cl, pH 7.4 @4°C). After centrifuging at 20,000x g for 15 minutes, the pellets were resuspended in 30 volumes of buffer. Homogenate (containing 125-150 µg protein) was added to triplicate tubes containing concentrations of test compound and [^3H]-CYT (1.25 nM) in a final volume of 500 µL. Samples were incubated for 60 minutes at 4°C, then rapidly filtered through Whatman GF/B filters presoaked in 0.5% polyethyleneimine using 3 x 4 mL of ice-cold buffer. The filters are counted in 4 mL of Ecolume® (ICN). […] Alternately, data were expressed as a percentage of the total specific binding.

[2] = system: Neuronal Nicotinic Cholinergic Channels in IMR-32 Cells; assay: 86Rb+ efflux in IMR-32 cells (Protocol B); conditions: for IMR-32 maximal response: percent relative to the response elicited by 100 µM (S)-nicotine; for EC50: read-out: IMR-32 EC50, activation of 86Rb+ efflux, IMR-32 human neuroblastoma cells
Protocol: For the purpose of directly evaluating the ability of test compounds to functionally activate or inhibit certain subtypes of neuronal nicotinic cholinergic channels, an assay to determine ^86Rb^+ efflux in IMR-32 cells was employed (Protocol B below).
Experimental cells were seeded at a density of 500,000 cells/mL into a 24-well tissue culture dish. Plated cells were allowed to proliferate for at least 48 hours before loading with 2 µCi/mL of ^86Rb^+ (35 Ci/mmol) overnight at 37°C.

[3] = displacement of [3H]-CYT (1.25 nM), crude synaptic membranes from whole rat brain, IC50 converted to Ki (Cheng and Prusoff), read-out: Binding
[4] = inhibition of the efflux elicited by 100 µM (S)-nicotine, single dose 1 µM
[5] = inhibition of the efflux elicited by 100 µM (S)-nicotine, single dose 10 µM

T1 sequence (P09483 31-630): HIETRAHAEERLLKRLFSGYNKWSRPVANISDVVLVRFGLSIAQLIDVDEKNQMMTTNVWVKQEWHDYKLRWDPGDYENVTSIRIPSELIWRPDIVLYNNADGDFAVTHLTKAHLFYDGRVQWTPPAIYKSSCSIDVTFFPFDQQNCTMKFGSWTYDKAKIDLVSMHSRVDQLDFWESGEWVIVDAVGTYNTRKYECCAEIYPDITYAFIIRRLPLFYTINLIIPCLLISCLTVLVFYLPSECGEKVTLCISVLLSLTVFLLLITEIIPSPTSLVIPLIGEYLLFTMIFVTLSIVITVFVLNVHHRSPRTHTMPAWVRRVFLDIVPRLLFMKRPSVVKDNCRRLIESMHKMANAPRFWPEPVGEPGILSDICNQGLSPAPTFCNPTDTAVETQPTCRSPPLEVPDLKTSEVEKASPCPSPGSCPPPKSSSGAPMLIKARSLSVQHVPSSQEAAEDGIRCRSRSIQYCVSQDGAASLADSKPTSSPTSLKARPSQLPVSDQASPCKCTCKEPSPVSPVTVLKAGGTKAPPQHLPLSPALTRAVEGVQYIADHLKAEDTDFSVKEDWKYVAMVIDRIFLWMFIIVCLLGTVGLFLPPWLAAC
T1 sequence (P12390 25-500): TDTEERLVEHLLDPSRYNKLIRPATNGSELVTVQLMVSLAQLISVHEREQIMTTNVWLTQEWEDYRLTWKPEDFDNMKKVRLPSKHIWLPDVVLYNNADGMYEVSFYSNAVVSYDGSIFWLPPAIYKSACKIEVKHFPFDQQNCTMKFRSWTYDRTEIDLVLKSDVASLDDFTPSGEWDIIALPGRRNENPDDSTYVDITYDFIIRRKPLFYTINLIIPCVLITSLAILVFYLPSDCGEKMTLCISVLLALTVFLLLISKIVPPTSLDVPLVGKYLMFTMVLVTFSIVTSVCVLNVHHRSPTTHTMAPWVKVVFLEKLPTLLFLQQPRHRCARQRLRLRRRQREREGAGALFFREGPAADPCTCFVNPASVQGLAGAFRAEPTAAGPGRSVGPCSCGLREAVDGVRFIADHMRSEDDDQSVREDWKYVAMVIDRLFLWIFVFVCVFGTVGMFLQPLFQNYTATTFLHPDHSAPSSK

| Compound | Ki [1, 3] [nM] | IMR-32 maximal response [2] [%] | EC50 [2] [nM] | % Inhibition @ 1 µM [2] [%] | % Inhibition @ 10 µM [2] [%] | Ki [1] [nM] | % Inhibition @ 1 µM [2, 4] [%] | % Inhibition @ 10 µM [2, 5] [%] |
| --- | --- | --- | --- | --- | --- | --- | --- | --- |
| CCc1cc(OC[C@H]2CCCN2)cnc1Cl.Cl [Example 48, 5-Ethyl-6-chloro-3-(2-(R)-pyrrolidinylmethoxy)pyridine hydrochloride] | 0.027 | 129 | 56000 | – | – | – | – | – |
| CN1CC[C@@H]1COc1cnc(Cl)c(Cl)c1.Cl [Example 18, 5,6-dichloro-3-(1-methyl-2-(R)-azetidinylmethoxy)pyridine hydrochloride] | 2.4 | 22.5 | – | 0 | 18 | – | – | – |
| CN1CCC[C@H]1COc1cnc(Cl)c(Cl)c1.Cl [Example 12, 5,6-Dichloro-3-(1-methyl-2-(S)-pyrrolidinylmethoxy)pyridine hydrochloride] | 0.11 | 16 | – | 5 | 8 | – | – | – |
| Cc1ncc(OC[C@@H]2CCN2)cc1Br.Cl [Example 52, 5-bromo-6-methyl-3-(2-(S)-azetidinylmethoxy)pyridine hydrochloride] | – | 124 | 1600 | – | – | – | – | – |
| Cl.Clc1cc(OC[C@H]2CCN2)cnc1Cl [Example 17, 5,6-dichloro-3-(2-(R)-azetidinylmethoxy)pyridine hydrochloride] | – | 108 | 200 | – | – | 0.06 | – | – |
| Cl.Cl.Clc1ncc(OC[C@H]2CCCN2)cc1Br [Example 7, 5-bromo-6-chloro-3-(2-(R)-pyrrolidinylmethoxy)pyridine dihydrochloride] | – | 70 | 4900 | – | – | 0.099 | – | – |
| Cl.Clc1ncc(OC[C@@H]2CCN2)cc1Br [Example 2, 5-Bromo-6-chloro-3-(2-(S)-azetidinylmethoxy)pyridine hydrochloride] | – | 120 | 100 | – | – | – | – | – |
| CN1CCC[C@@H]1COc1cnc(Cl)c(Cl)c1.Cl [Example 10, 5,6-Dichloro-3-(1-methyl-2-(R)-pyrrolidinylmethoxy)pyridine hydrochloride] | 20 | 3.3 | – | 18 | 90 | – | – | – |
| CN1CC[C@H]1COc1cnc(Cl)c(C#N)c1.Cl [Example 50, 5-Cyano-6-chloro-3-(1-methyl-2-(S)-azetidinylmethoxy)pyridine hydrochloride] | 0.88 | 35 | 10000 | – | – | – | – | – |
| Cl.Clc1cc(OC[C@@H]2CCN2)cnc1Cl [Example 15, 5,6-dichloro-3-(2-(S)-azetidinylmethoxy)pyridine hydrochloride] | – | 152 | 300 | – | – | – | – | – |
| 5-Ethyl-6-chloro-3-(1-methyl-2-(S)-pyrrolidinylmethoxy)pyridine hydrochloride [Example 47] | 0.065 | 152 | 22000 | – | – | – | – | – |
| NC(=O)c1cc(OC[C@@H]2CCN2)cnc1Cl [Example 51, hydrochloride] | 0.19 | 64 | 16000 | – | – | – | – | – |
| Cl.Clc1cc(OC[C@@H]2CCCN2)cnc1Cl [Example 11, 5,6-Dichloro-3-(2-(S)-pyrrolidinylmethoxy)pyridine hydrochloride] | 0.029 | 93 | 600 | – | – | – | – | – |
| CCc1cc(OC[C@@H]2CCCN2)cnc1Cl.Cl [Example 46, 5-Ethyl-6-chloro-3-(2-(S)-pyrrolidinylmethoxy)pyridine hydrochloride] | 0.6 | 11 | – | – | – | – | – | – |
| CCc1cc(OC[C@@H]2CCN2)cnc1Cl.Cl [Example 45, 5-Ethyl-6-chloro-3-(2-(S)-azetidinylmethoxy)pyridine hydrochloride] | – | 137 | 400 | – | – | 0.04 | – | – |
| CN1CCC[C@H]1COc1cnc(Cl)c(Br)c1.Cl.Cl [Example 5, 5-Bromo-6-chloro-3-(1-methyl-2-(S)-pyrrolidinylmethoxy)pyridine dihydrochloride] | – | 12 | – | – | – | 0.35 | 12 | 22 |
| CN1CCC[C@@H]1COc1cnc(Cl)c(Br)c1.Cl [Example 8, 5-bromo-6-chloro-3-(1-methyl-2-(R)-pyrrolidinylmethoxy)pyridine hydrochloride] | – | 10.6 | – | – | – | 13 | 28 | 60 |
| CN1CC[C@H]1COc1cnc(Cl)c(Cl)c1.Cl [Example 16, 5,6-dichloro-3-(1-methyl-2-(S)-azetidinylmethoxy)pyridine hydrochloride] | 0.7 | 37 | 500 | 35 | – | – | – | – |
| Cl.N#Cc1cc(OC[C@@H]2CCN2)cnc1Cl [Example 49, 5-Cyano-6-chloro-3-(2-(S)-azetidinylmethoxy)pyridine hydrochloride] | 0.097 | 158 | 290 | – | – | – | – | – |
| Cl.Clc1cc(OC[C@H]2CCCN2)cnc1Cl [Example 9, 5,6-Dichloro-3-(2-(R)-pyrrolidinylmethoxy)pyridine hydrochloride] | 0.03 | 67 | 1600 | – | – | – | – | – |
| CN1CC[C@H]1COc1cnc(Cl)c(Br)c1.Cl [Example 3, 5-Bromo-6-chloro-3-(1-methyl-2-(S)-azetidinylmethoxy)pyridine hydrochloride] | 0.38 | – | – | 55 | – | – | – | – |
